The values below come from patent publication US7608617B2, “Naphthaline derivatives as H3 inverse agonists” (Hoffmann-La Roche Inc., priority 2004, dated 2009).

Counter-ions that a name gives are not always drawn.

The target of the experiment is T1, histamine 3 receptor (H3R) (Homo sapiens, UniProt Q9Y5N1).
T1 construct: expressed in transfected cells; host or cells: CHO cells (HR3-CHO cell line), membranes
Put plainly: Binding assay with 3H-(R)α-methylhistamine (competition binding, membranes of the human HR3-CHO cell line). Conditions: competition with 3H(R)α-Methylhistamine 1 nM, Ki calculated from IC50 by Cheng-Prusoff equation. As for the experimental part: Binding assay with ^3H—(R)α-methylhistamine
Saturation binding experiments were performed using HR3—CHO membranes prepared as described in Takahashi, K, Tokita, S., Kotani, H. (2003) J. Pharmacol. Exp. Therapeutics 307, 213-218.
An appropriate amount of membrane (60 to 80 μg protein/well) was incubated with increasing concentrations of ^3H(R)α-Methylhistamine di-hydrochloride (0.10 to 10 nM). Non specific binding was determined using a 200 fold excess of cold (R)α-Methylhistamine dihydrobromide (500 nM final concentration). The incubation was carried out at room temperature (in deep-well plates shaking for three hours). The final volume in each well was 250 μl. The incubation was followed by rapid filtration on GF/B filters (pre-soaked with 100 μl of 0.5% PEI in Tris 50 mM shaking at 200 rpm for two hours). The filtration was made using a cell-harvester and the filter plates were then washed five times with ice cold washing buffer containing 0.5 M NaCl. After harvesting, the plates were dried at 55° C. for 60 min, then we added scintillation fluid (Microscint 40, 40 microl in each well) and the amount of radioactivity on the filter was determined in Packard top-counter after shaking the plates for two hours at 200 rpm at room temperature.
Binding Buffer: 50 mM Tris-HCl pH 7.4 and 5 mM MgCl2x 6H2O pH 7.4. Washing Buffer: 50 mM Tris-HCl pH 7.4 and 5 mM MgCl2×6H2O and 0.5 M NaCl pH 7.4:
Indirect measurement of affinity of H3R inverse agonists: twelve increasing concentrations (ranging from […] to 0.3 nM) of the selected compounds were always tested in competition binding experiments using membrane of the human HR3-CHO cell line. An appropriate amount of protein, e.g. approximately 500 cpm binding of RAMH at Kd, were incubated for 1 hour at room temperature in 250 μl final volume in 96-well plates in presence of ^3H(R)α-Methylhistamine (1 nM final concentration=Kd). […]
All compounds were tested at a single concentration in duplicates. […] Ki's were calculated from IC50 based on Cheng-Prusoff equation (Cheng, Y, Prusoff, W H (1973) Biochem Pharmacol 22, 3099-3108).

T1 sequence (Q9Y5N1 whole entry): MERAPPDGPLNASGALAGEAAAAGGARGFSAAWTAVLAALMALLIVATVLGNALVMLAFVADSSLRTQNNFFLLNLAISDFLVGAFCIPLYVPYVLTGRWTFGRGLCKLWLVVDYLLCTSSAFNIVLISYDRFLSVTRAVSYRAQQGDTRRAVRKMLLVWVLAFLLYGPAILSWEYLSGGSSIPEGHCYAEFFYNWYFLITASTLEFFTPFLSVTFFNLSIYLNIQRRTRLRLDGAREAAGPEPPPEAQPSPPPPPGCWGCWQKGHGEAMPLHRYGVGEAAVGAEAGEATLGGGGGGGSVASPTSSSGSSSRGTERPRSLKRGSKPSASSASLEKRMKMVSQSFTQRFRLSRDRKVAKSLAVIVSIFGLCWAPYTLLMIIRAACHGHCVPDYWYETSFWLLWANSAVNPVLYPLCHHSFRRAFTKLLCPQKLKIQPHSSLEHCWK

As usually defined, the Ki is a dissociation constant, usually derived from enzyme kinetics or from competition with a known ligand. `CC1CCCCN1CCCOc1ccc2cc(C(=O)N(C)Cc3ccccc3)ccc2c1` (stereo not drawn) [Example 13, 6-[3-(2-methyl-piperidin-1-yl)-propoxy]-naphthalene-2-carboxylic acid benzyl-methyl-amide 1:1 hydrochloride]: the inhibition constant Ki was 111 nM. The value for `CC1CCN(C(=O)c2ccc3cc(OCCC4CCCN4C)ccc3c2)CC1` (stereo not drawn) [Example 31, (4-methyl-piperidin-1-yl)-{6-[2-(1-methyl-pyrrolidin-2-yl)-ethoxy]-naphthalen-2-yl}-methanone 1:1 hydrochloride] was 571 nM; that for `O=C(c1ccc2cc(OCCCN3CCCCC3)ccc2c1)N1CCCCC1` [Example 1, piperidin-1-yl-[6-(3-piperidin-1-yl-propoxy)-naphthalen-2-yl]-methanone 1:1 hydrochloride] was 26 nM.
